Data on 16 molecules can be found in ChEMBL document CHEMBL1147593, “Design and synthesis of benzoxazole derivatives as novel melatoninergic ligands” (Bioorg Med Chem Lett, 2004).

Assay [1] addresses Melatonin receptor type 1A (Homo sapiens, UniProt P48039). Nature of the assay: Binding of 2-[125I]iodomelatonin to membrane preparations of NIH3T3 cells stably expressing human Melatonin receptor type 1A. The class given is cell membranes.
The target in assay [2] is T1, Melatonin receptor type 1B (Homo sapiens, UniProt P49286).
T1 sequence (P49286 whole entry): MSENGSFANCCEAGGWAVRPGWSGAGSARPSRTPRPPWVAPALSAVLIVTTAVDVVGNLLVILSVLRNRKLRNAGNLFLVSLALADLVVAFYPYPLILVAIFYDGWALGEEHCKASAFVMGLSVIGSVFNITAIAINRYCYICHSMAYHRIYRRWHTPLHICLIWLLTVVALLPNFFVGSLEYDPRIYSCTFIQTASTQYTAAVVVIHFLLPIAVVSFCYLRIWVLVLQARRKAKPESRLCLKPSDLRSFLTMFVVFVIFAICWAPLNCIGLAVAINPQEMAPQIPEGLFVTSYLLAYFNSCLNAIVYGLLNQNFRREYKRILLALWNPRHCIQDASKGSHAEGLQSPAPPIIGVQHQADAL
Nature of the assay: Binding of 2-[125I]iodomelatonin to membrane preparations of NIH3T3 cells stably expressing human Melatonin receptor type 1B. It counts as cell membranes.

Sequence of Melatonin receptor type 1A (P48039 whole entry): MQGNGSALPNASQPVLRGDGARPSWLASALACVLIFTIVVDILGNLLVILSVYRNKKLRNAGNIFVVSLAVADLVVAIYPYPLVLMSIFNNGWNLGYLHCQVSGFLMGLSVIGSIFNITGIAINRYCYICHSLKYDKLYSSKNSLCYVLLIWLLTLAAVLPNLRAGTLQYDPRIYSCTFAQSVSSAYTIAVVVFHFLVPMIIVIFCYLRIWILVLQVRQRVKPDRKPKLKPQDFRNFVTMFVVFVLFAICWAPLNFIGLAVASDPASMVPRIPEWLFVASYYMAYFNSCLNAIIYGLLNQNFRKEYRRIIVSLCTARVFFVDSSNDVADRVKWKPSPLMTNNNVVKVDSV

`CCc1nc2cccc([C@@H]3C[C@H]3CNC(C)=O)c2o1`: the values for the Ki in assay [1] and in assay [2] were 0.35 nM and 0.88 nM, respectively.

Turning to `CCCc1nc2cccc([C@@H]3C[C@H]3CNC(=O)NCC)c2o1`, the inhibition constant (Ki) (in general, a measure of affinity in units of concentration, obtained from inhibition or displacement) in assay [1] turned out to be 3.5 nM; in assay [2], 1 nM.

In the case of `CCc1nc2cccc([C@@H]3C[C@H]3CNC(=O)C3CC3)c2o1`, the results for the Ki in assay [1] and in assay [2] were 0.05 nM and 0.19 nM, respectively.

With `CC(=O)NC[C@@H]1C[C@H]1c1cccc2nc(CCCCc3ccccc3)oc12`, the Ki in assay [1] was determined as 0.05 nM; in assay [2] it was 0.37 nM.

In the case of `CCNC(=O)NC[C@@H]1C[C@H]1c1cccc2nc(C(C)C)oc12`, the inhibitory constant (Ki) in assay [1] was determined as 11.8 nM; in assay [2], 12.6 nM.

Consider `CCCC(=O)NC[C@@H]1C[C@H]1c1cccc2nc(CC)oc12`, for which the Ki in assay [1] was determined as 0.05 nM; in assay [2] it was 0.33 nM.

As to `CCCc1nc2cccc([C@@H]3C[C@H]3CNC(=O)C(C)C)c2o1`, the results for the inhibition constant Ki in assay [1] and in assay [2] were 4.9 nM and 0.28 nM, respectively.

Consider `CCCc1nc2cccc([C@@H]3C[C@H]3CNC(=O)C3CC3)c2o1`, for which the Ki in assay [1] is 0.18 nM; in assay [2], 0.14 nM.

As for `CCC(=O)NC[C@@H]1C[C@H]1c1cccc2nc(C(C)C)oc12`, the Ki in assay [1] is 4.9 nM; in assay [2], 0.32 nM.

`O=C(NC[C@@H]1C[C@H]1c1cccc2nc(CCCCc3ccccc3)oc12)C1CC1`: the inhibition constant Ki in assay [1] was determined as 0.05 nM; in assay [2], 0.48 nM.

For `CCC(=O)NC[C@@H]1C[C@H]1c1cccc2nc(CCCCc3ccccc3)oc12`, the inhibition constant (Ki) turned out to be 0.05 nM in assay [1] and 0.07 nM in assay [2].

`CCCC(=O)NC[C@@H]1C[C@H]1c1cccc2nc(CCC)oc12`: the Ki was found to be 0.94 nM in assay [1] and 0.04 nM in assay [2].

As for `CC(C)C(=O)NC[C@@H]1C[C@H]1c1cccc2nc(C(C)C)oc12`, the Ki came to 1.3 nM in assay [1] and 2.5 nM in assay [2].

In the case of `CCc1nc2cccc([C@@H]3C[C@H]3CNC(=O)C(C)C)c2o1`, the Ki in assay [1] is 0.2 nM; in assay [2] it was 0.75 nM.

Regarding `CCCC(=O)NC[C@@H]1C[C@H]1c1cccc2nc(CCCCc3ccccc3)oc12`, the inhibition constant Ki came to 0.05 nM in assay [1] and 0.24 nM in assay [2].

`CCC(=O)NC[C@@H]1C[C@H]1c1cccc2nc(CC)oc12`: the Ki in assay [1] worked out at 0.05 nM; in assay [2], 0.44 nM.
